Where two headings read alike, the source gives them in different places.
How the values were obtained:
Type in all cases: cell-based, human
[1] = tested on: MCF-7 breast cancer cells; assay: MTT cell viability assay, MCF-7
Experimental: (§1) MCF-7, MDA-MB-231 (both human breast cancer cell lines), and fibroblast cells were obtained from American Type Culture Collection (ATCC, Manassas, VA, USA). DMEM and FBS used in a cell culture were from Gibco (USA). Glutamine, penicillin, and streptomycin were obtained from Quality Biologicals Inc. (USA). DMEM media was blended with 50 units/ml of penicillin, 50 μg/ml of streptomycin, 10% of FBS. All cell lines were cultured in 5% CO2 and fully humidified at 37 °C. Cells were cultured in Costar flasks and sub-confluent cells were detached with 0.05% trypsin and 0.02% ethylenediaminetetraacetic acid in calcium-free phosphate-buffered saline (PBS), counted in hemocytometers, and plated at 5 × 10^5 cells/well of six-well plates (Thermo Scientific, New York, NY, USA) in 2 ml of growth medium (DMEM without phenol red with 10% CPSR1). Cells reached about 80% of confluency at day 2, and in most cases such cells were used for the assays.
(§2) The viability of cultured cells was decided through assaying the reduction of MTT to formazan. In brief, MCF-7, MDA-MB-231, and fibroblast cells line were seeded at an initial density of 1 × 10^5 cells per well. Then, the cells were incubated at 37 °C for 24 h. Subsequently, cultured cells were treated with a medium containing concentrations (5, 10, 20, 30, 40, and 50 μM) of PtPz1–PtPz6 for 24 h and 48 h. After the incubation period, MTT was added into all wells in the final concentration of 0.5 mg/ml. After that, the cells were incubated at 37 °C for 4 h. Then, by removing the medium, 200 μl of DMSO was added to all wells. As a result, insoluble formazan was dissolved in DMSO (0.5%). At 570 nm (630 nm as a reference), the absorbance was measured in an Evolution 201 reader (Thermo Scientific, Waltham, MA).

[2] = tested on: fibroblast cells; assay: MTT cell viability assay, fibroblasts
Experimental: as §1, §2

[3] = tested on: MCF-7 breast cancer cells; assay: DNA fragmentation TUNEL assay, MCF-7; conditions: MCF-7, 20 μM, 24 h; control 4.0%
Experimental: (§3) DNA fragmentation associated with apoptosis was examined by the terminal deoxynucleotidyltransferase (TdT)- mediated dUTP nick end labeling (TUNEL) method using a commercial assay kit (APO-Direct Kit; BD Pharmingen, San Diego, CA). After treatment, the cells were fixed with 1% paraformaldehyde in PBS (4°C, 30 min), washed in PBS, and permeabilised with ice-cold 70% ethanol. The APO-Direct Kit TUNEL assay was performed as described by the manufacturer. Briefly, the fixed cells were washed twice using the kit wash buffer, and after centrifugation the supernatant was discarded. The DNA labeling solution (containing TdT enzyme and FITC-dUTP) was added to the cell pellet, and the re-suspended mixture was incubated for 1 h at 37°C with occasional shaking. At the end of incubation time, rinse buffer was added, and after centrifugation the supernatant was discarded. We repeated the cell rinsing with rinse buffer, and then suspended the cell pellet in PI/RNase staining buffer. Cells were incubated at room temperature for 30 min and immediately analysed in a BD FACSCanto II flow cytometer. In total, 10,000 events were collected per test sample. The results were analysed with FACSDiva software (both from BD Biosciences Systems, San Jose, CA). The percentage of cells with distinctive apoptotic DNA strand breaks and distinguished by green fluorescent emission was calculated.

[4] = tested on: MDA-MB-231 breast cancer cells; assay: DNA fragmentation TUNEL assay, MDA-MB-231; conditions: MDA-MB-231, 20 μM, 24 h
Experimental: as §3

[5] = tested on: caspase-3 in MDA-MB-231 breast cancer cells; assay: FLICA caspase-3 activity, flow cytometry, MDA-MB-231; conditions: MDA-MB-231, 20 μM, 24 h
Experimental: (§4) Caspase-3 activity was measured using the FLICA Caspase 3 Assay Kit (ImmunoChemistry Technologies, Bloomington, MN, USA), according to the manufacturer’s instructions. Briefly, cultured MDA-MB-231 breast cancer cells (1 × 10^6) were washed with cold PBS twice and re-suspended in buffer. We added 5 µl of diluted FLICA reagent and 2 µl of Hoechst 33342 to 93 µl of cell suspension and mixed by pipetting. The cells were incubated for 60 min at 37°C. After incubation, the cells were washed twice in 400 µl of apoptosis wash buffer and centrifuged at 300 × g. After the last wash, we re-suspended the cells in 100 µl of apoptosis wash buffer supplemented with 10 µg/ml PI. Analysis was performed using the BD FACSCanto II flow cytometer, and the results were analysed with FACSDiva software (both from BD Biosciences Systems, San Jose, CA).

[6] = tested on: caspase-8 in MCF-7 breast cancer cells; assay: FLICA caspase-8 activity, flow cytometry, MCF-7; conditions: MCF-7, 20 μM, 24 h
Experimental: as §4, with “Caspase-8 activity” for “Caspase-3 activity”, “Caspase 8” for “Caspase 3”, “cultured MCF-7 and” for “cultured”

[7] = tested on: caspase-9 in MCF-7 breast cancer cells; assay: FLICA caspase-9 activity, flow cytometry, MCF-7; conditions: MCF-7, 20 μM, 24 h
Experimental: as §4, with “Caspase-9 activity” for “Caspase-3 activity”, “Caspase 9” for “Caspase 3”, “cultured MCF-7 and” for “cultured”, “re-suspended” for “re-suspended the”

[8] = tested on: caspase-9 in MDA-MB-231 breast cancer cells; assay: FLICA caspase-9 activity, flow cytometry, MDA-MB-231; conditions: MDA-MB-231, 20 μM, 24 h
Experimental: as §4, with “Caspase-9 activity” for “Caspase-3 activity”, “Caspase 9” for “Caspase 3”, “cultured MCF-7 and” for “cultured”, “re-suspended” for “re-suspended the”

[9] = MCF-7, 24 h incubation, 5-50 μM, read-out: IC50 (cell viability, MTT)
[10] = MCF-7, 48 h incubation, 5-50 μM, read-out: IC50 (cell viability, MTT)
[11] = 24 h incubation, 5-50 μM, read-out: IC50 (cell viability, MTT)
[12] = 48 h incubation, 5-50 μM, read-out: IC50 (cell viability, MTT)

SMILES | IC50 [1, 9] [µM] | IC50 [1, 10] [µM] | IC50 [2, 11] [µM] | IC50 [2, 12] [µM] | percent of TUNEL positive cells [3] [%] | percent of TUNEL positive cells [4] [%] | increase in caspase-3 activity compared with untreated cells [5] | percent of cells with active caspase-3 [5] [%] | increase in caspase-8 activity compared with the control [6] [fold] | percent of cells with active caspase-8 [6] [%] | percent of cells with active caspase-9 [7] [%] | percent of cells with active caspase-9 [8] [%] | IC50 ([1]; read-out: IC50 (additional test for cisplatin), MCF-7, 24 h, additional test in concentrations allowing to determine IC50) [µM] | IC50 ([1]; read-out: IC50 (additional test for cisplatin), MCF-7, 48 h, additional test in concentrations allowing to determine IC50) [µM] | IC50 ([2]; read-out: IC50 (additional test for cisplatin), 24 h, additional test in concentrations allowing to determine IC50) [µM] | IC50 ([2]; read-out: IC50 (additional test for cisplatin), 48 h, additional test in concentrations allowing to determine IC50) [µM]
Cc1ccn[nH]1.Cc1ccn[nH]1.Cc1ccn[nH]1.Cc1ccn[nH]1.Cl.Cl.Cl.Cl.N=C(N)c1ccc(N=N[N]([Pt])c2ccc(C(=N)N)cc2)cc1.N=C(N)c1ccc(N=N[N]([Pt])c2ccc(C(=N)N)cc2)cc1.O.O [PtPz5, [Pt2(5-methylpyrazole)4(berenil)2]·4HCl·2H2O] | 28 ± 2 | 22 ± 2 | 35 ± 1 | 31 ± 2 | 32.1 | 31.6 |  | 21.0 |  | 46.1 | 39.6 | 38.6 |  |  |  | 
CCn1ccc[n+]1[Pt-2]1([n+]2cccn2CC)[N](c2ccc(C(=N)N)cc2)N=[N+](c2ccc(C(=N)N)cc2)[Pt-2]([n+]2cccn2CC)([n+]2cccn2CC)[N](c2ccc(C(=N)N)cc2)N=[N+]1c1ccc(C(=N)N)cc1.Cl.Cl.Cl.Cl.O.O [PtPz6, [Pt2(N-ethylpyrazole)4(berenil)2]·4HCl·2H2O] | > 50 | 48 ± 2 | > 50 | > 50 | 14.2 | 13.2 |  | 11.0 |  | 21.0 | 24.1 | 24.6 |  |  |  | 
N.N.[Cl][Pt][Cl] [cisplatin, reference compound] | > 50 | > 50 |  | > 50 | 10.9 | 8.9 |  | 6.4 |  | 7.1 | 8.2 | 7.3 | 93 ± 2 | 78 ± 1 | > 100 | > 100

Now those with a lower IC50 [1, 9], led by results:

IC50 [1, 9] [µM] | IC50 [1, 10] [µM] | SMILES | IC50 [2, 11] [µM] | IC50 [2, 12] [µM] | percent of TUNEL positive cells [3] [%] | percent of TUNEL positive cells [4] [%] | increase in caspase-3 activity compared with untreated cells [5] | percent of cells with active caspase-3 [5] [%] | increase in caspase-8 activity compared with the control [6] [fold] | percent of cells with active caspase-8 [6] [%] | percent of cells with active caspase-9 [7] [%] | percent of cells with active caspase-9 [8] [%] | IC50 ([1]; read-out: IC50 (additional test for cisplatin), MCF-7, 24 h, additional test in concentrations allowing to determine IC50) [µM] | IC50 ([1]; read-out: IC50 (additional test for cisplatin), MCF-7, 48 h, additional test in concentrations allowing to determine IC50) [µM] | IC50 ([2]; read-out: IC50 (additional test for cisplatin), 24 h, additional test in concentrations allowing to determine IC50) [µM] | IC50 ([2]; read-out: IC50 (additional test for cisplatin), 48 h, additional test in concentrations allowing to determine IC50) [µM]
17 ± 2 | 11 ± 1 | Cc1cc(C)[n+]([Pt-2]2([n+]3c(C)cc(C)n3CO)[N](c3ccc(C(=N)N)cc3)N=[N+](c3ccc(C(=N)N)cc3)[Pt-2]([n+]3c(C)cc(C)n3CO)([n+]3c(C)cc(C)n3CO)[N](c3ccc(C(=N)N)cc3)N=[N+]2c2ccc(C(=N)N)cc2)n1CO.Cl.Cl.Cl.Cl.O.O [PtPz1, [Pt2(N-hydroxymethyl-3,5-dimethylpyrazole)4(berenil)2]·4HCl·2H2O] | 24 ± 3 | 19 ± 2 | 55.7 | 58.3 | nine-fold increase | 30.6 | ~12 | 56.2 | 52.8 | 47.9 |  |  |  | 
20 ± 2 | 13 ± 2 | Cc1cc(C)[n+]([Pt-2]2([n+]3[nH]c(C)cc3C)[N](c3ccc(C(=N)N)cc3)N=[N+](c3ccc(C(=N)N)cc3)[Pt-2]([n+]3[nH]c(C)cc3C)([n+]3[nH]c(C)cc3C)[N](c3ccc(C(=N)N)cc3)N=[N+]2c2ccc(C(=N)N)cc2)[nH]1.Cl.Cl.Cl.Cl.O.O [PtPz2, [Pt2(3,5-dimethylpyrazole)4(berenil)2]·4HCl·2H2O] | 27 ± 2 | 24 ± 2 | 47.5 | 55.8 | nine-fold increase | 28.9 | ~12 | 56.2 | 50.5 | 46.5 |  |  |  | 
23 ± 1 | 18 ± 1 | Cc1c[nH][n+]([Pt-2]2([n+]3[nH]cc(C)c3C)[N](c3ccc(C(=N)N)cc3)N=[N+](c3ccc(C(=N)N)cc3)[Pt-2]([n+]3[nH]cc(C)c3C)([n+]3[nH]cc(C)c3C)[N](c3ccc(C(=N)N)cc3)N=[N+]2c2ccc(C(=N)N)cc2)c1C.Cl.Cl.Cl.Cl.O.O [PtPz3, [Pt2(3,4-dimethylpyrazole)4(berenil)2]·4HCl·2H2O] | 32 ± 1 | 28 ± 1 | 46.5 | 50.4 |  | 22.9 |  | 48.3 | 43.4 | 41.1 |  |  |  | 

Source: article PMC6009892, “A novel series of pyrazole-platinum(II) complexes as potential anti-cancer agents that induce cell cycle arrest and apoptosis in breast cancer cells” (Journal of Enzyme Inhibition and Medicinal Chemistry, 2018)
